# “Also recorded” adds a separate entry of the source.
# Columns and labels:
# [1] = test system: OVA-specific T cell responses and antibody responses; test: Ovalbumin immunization of mice with adjuvants: OVA-specific T cell and antibody responses; type: in vivo
# Method: 6-8 weeks aged mice were primarily immunized by the inventors using intraperitoneal injection method, wherein Ovalbumin (10 μg/mouse) was used as antigen and PBS (negative control), MPL (10 μg/mouse, positive control), rapamycin (100 μg/mouse), rapamycin (100 μg/mouse)+MPL (10 μg/mouse) as adjuvant respectively, and were immunized again with ovalbumin (10 μg/mouse, without adjuvant) at 3 weeks. […] After 48 hours, enzyme linked immunosorbent assay (ELISA) was used to determine the content of IFNγ in the supernatant.
# [2] = test system: HBsAg-specific antibody and T cell responses; test: HBsAg VLP immunization of mice with adjuvants: antibody titers and Elispot T cell responses; type: in vivo, C57BL/6 mice
# Method: Virus-like particles (VLP) consisting of (HBV) outer membrane protein antigens is one of the few successful recombinant vaccines clinically used. Aluminum adjuvant (Alum) can only enhance the immune response of VLP in health populations, while it is of limited effects in the elderly people and patients with renal dysfunction. […] In order to further analyze the adjuvant activity of rapamycin, C57BL/6 mice were immunized by the inventors using HBsAg VLP (5 μg/mouse) (Shanghai Yemin Biotechnology Co., Ltd., Item number YM-101) as antigen in mixture with Alum (200 μg/mouse), Alum (200 μg/mouse)+MPL (10 μg/mouse), MPL (10 μg/mouse)+rapamycin (100 μg/mouse) respectively, and was immunized with HBsAg (without MPL or rapamycin) 3 weeks after the primary immunization. The mice were killed 2 weeks after the secondary immunization, and blood was taken to determine the content of HBsAg-specific IgG1, IgG2b, IgG2c. To test HBsAg-specific T cell responses, the inventors have determined HBsAg-specific induced Th1, Th17 and Th2 responses by Elispot (Elispot Assay).
# The specific operations are listed as follows: spleen cells were inoculated at 5×10^5 cells per-well into Elispot 96-wells plate of IFNγ, IL-17 or IL-4, and treated or untreated (control) with HBsAg (10 μg/ml) or CD8 peptides (10 μg/ml, […], VWLSVIWM, China Peptides Co., LTD., Shanghai), incubated under 37° C., 5% CO2 for two days. The cells and supernatants were removed. The plates were washed with PBST for 5 times, then incubated with 50 μl of 2 μg/ml biotin-coupled IFNγ (ebioscience, cat No: 13-7312), IL-17 (ebioscience, cat No: 13-7177) or IL-4 (Mabtech, cat No: 3311-6-250) detecting antibody under 37° C. for 2 hours, washed with PBST for 5 times, then incubated with 100 μl of 1000-fold diluted Streptavidin-alkaline phosphatase (Mabtech, cat No: 3310-10) under 37° C. for 1 hour. After this incubation, plates washed with PBST for 3 times, and then washed with PBS for two times. 100 μl of NBT/CPIT substrate (Mabtech, cat No: 3650-10) was added and incubated at room temperature for 0.5 hour. Plates were washed with deionized water for 3 times, and then naturally dried in darkness. The numbers of positive spots was calculated with Elispot Reader, and then statistically analyzed.
# [3] = test system: immune response against HCV outer membrane protein E2; test: HCV E2 protein immunization with adjuvants: T cell and antibody responses; type: in vivo, C57BL/6 mice; details: E2 protein 20 μg/mouse; Alum 200 μg, MPL 10 μg, rapamycin 100 μg per mouse; IFNγ ELISA of E2-stimulated spleen cells, FIG. 7A
# Method: C57BL/6 mice were immunized using purified E2 protein (20 μg/mouse, bought from eEnzyme company, Cat No. HCV-E21b) as antigen in mixture with Alum (200 μg/mouse), MPL (10 μg/mouse), rapamycin (100 μg/mouse), MPL (10 µg/mouse)+rapamycin (100 μg/mouse) respectively, and after 4 weeks, were boosted by the same antigen+adjuvant program. 8 weeks after the secondary immunization, mice were immunized for one time with E2 protein (without MPL or rapamycin) (5 μg/mouse), and the mice were killed after 2 weeks. Spleen cells were taken to determine immune response of T cells (FIG. 7A), and serum was taken to determine antibody titers (FIG. 7B). The spleen cells (5×10^5 cells) were stimulated with 10 μg/ml of E2 protein. After 48 hours, the content of IFNγ in the supernatant was determined by enzyme linked immunosorbent assay (ELISA). […] Meanwhile, antibody response induced by the combination of rapamycin and MPL was also the best, which was better than MPL or alum alone (FIG. 7B).
# BMDCs = test: IL-12 expression (ELISA) in BMDCs stimulated by Toll-like receptor agonists with or without rapamycin; type: cell-based, mouse; details: rapamycin 100 nM 1 hour
# Method: The present inventors have firstly studied the influence of rapamycin on IL-12 expression induced by a variety of Toll-like receptors agonist including polyI:C by in vitro experiments. Dendritic cells differentiated from mouse bone marrow cells (BMDCs differentiated for 7 days with 20 ng/ml GM-CSF and 10 ng/ml IL-4) were pre-treated with or without rapamycin (100 nM) for 1 hour, and stimulated by LPS (100 ng/ml), MPL (1 μg/ml), R848 (1 μg/ml) and polyI:C (20 μg/ml) respectively for 24 hours, and cell culture media were taken to determine the content of IL-12 by ELISA.
# [4] = blood 1 week after secondary immunization, single adjuvants vs negative control, combination vs MPL alone
smiles,measurement,setting,value
CO[C@H]1C[C@@H]2CC[C@@H](C)[C@@](O)(O2)C(=O)C(=O)N2CCCC[C@H]2C(=O)O[C@H]([C@H](C)C[C@@H]2CC[C@@H](O)[C@H](OC)C2)CC(=O)[C@H](C)/C=C(\C)[C@@H](O)[C@@H](OC)C(=O)[C@H](C)C[C@H](C)/C=C/C=C/C=C/1C [rapamycin],OVA-specific IgG1 antibody titers,[1]; [4],relatively moderate
same,OVA-specific IgG2b antibody titers,[1]; [4],relatively moderate; also recorded: enhanced
same,OVA-specific IgG2c antibody titers,[1]; [4],relatively moderate; also recorded: enhanced
same,OVA-specific CD8+ T cell responses,"[1]; mice i.p., ovalbumin 10 μg, MPL 10 μg, rapamycin 100 μg per mouse, IFNγ ELISA of splenic cells stimulated with OVA-1, 48 hours",relatively moderate; also recorded: enhanced
same,OVA-specific CD4+ (Th1) T cell responses,"[1]; mice i.p., ovalbumin 10 μg, MPL 10 μg, rapamycin 100 μg per mouse, IFNγ ELISA of splenic cells stimulated with OVA-II, 48 hours",relatively moderate; also recorded: enhanced
same,HBsAg-specific antigen response enhanced by MPL,[2]; FIG. 4a,increased
same,HBsAg-specific CD8+ T cell responses,"[2]; IFNγ Elispot of spleen cells, CD8 peptides, compared with MPL+Alum immunized group",increased
same,HBsAg-specific CD4+ T cell responses,"[2]; IFNγ Elispot of spleen cells, compared with MPL+Alum immunized group",increased
same,HBsAg-specific Th2 cell response,"[2]; IL-4 Elispot, compared with MPL+Alum immunized group",increased
same,HBsAg-specific Th17 cell response,"[2]; IL-17 Elispot, compared with MPL+Alum immunized group",increased
same,immune response of IFN-γ secreting T cells against HCV E2,[3],inferior effect
same,IL-12 expression induced by lipopolysaccharide,BMDCs; LPS 100 ng/ml 24 hours,enhance
same,IL-12 expression induced by MPL,BMDCs; MPL 1 μg/ml 24 hours,enhance; also recorded: effectively enhanced
same,IL-12 expression induced by R848,BMDCs; R848 1 μg/ml 24 hours,effectively enhanced
same,IL-12 expression induced by polyI:C,BMDCs; polyI:C 20 μg/ml 24 hours,effectively enhanced

# — patent publication US20160279236A1, “USE OF RAPAMYCIN AS VACCINE ADJUVANT AND PREPARATION METHOD THEREFOR” (INSTITUT PASTEUR OF SHANGHAI, CHINESE ACADEMY OF SCIENCES, priority 2013, published 2016)
